{
  "source": "patent US20250352524A1",
  "about": "“PREVENTION OF METASTATIC OUTGROWTH USING TEAD INHIBITORS” (Georgetown University, priority 2024, published 2025)",
  "key": {"[1]": {"tested_on": "lung resident macrophages", "assay": "Cytokine array of conditioned media, isolated lung macrophages", "format": "cell-based, C57BL/6 mice", "source_text": "Due to the shifts in immune signaling observed in the lung tissue upon TEAD inhibition (FIG. 9), immune cell populations were first analyzed by flow cytometry in the lungs and spleens of tumor naïve mice. Consistent with the Cibersort analysis of RNA-seq data, there was a decrease in the monocytes population and an increase in the tissue-resident alveolar macrophages (AM) (FIG. 10, Panel A). […] Next, it was sought to determine the specific effects of iTEAD treatment on lung resident versus bone-marrow derived macrophages, as the dynamics of these cell populations are crucial for the establishment of the metastatic niche (Ries et al., 2014; Qian et al., 2011). Macrophages were retrieved from the lungs by isolating F4/80+ cells, a specific marker for murine macrophages, by FACS (fluorescence-activated cell sorting) as well as bone marrow-derived macrophages from the femurs of naïve C57BL/6 mice that were then differentiated in vitro using macrophage colony stimulating factor (M-CSF). Macrophages were treated with 1 μM of VT107 for 24 hours before the conditioned media was collected and analyzed on a cytokine array. […] There was no change in the level of the other cytokines detected (FIG. 10, Panel B).\nCells were grown in their recommended cell culture media and treated with […] VT107 for 24 or 72 hours. Conditioned media was collected and passed through a 0.2 micron PES filter then analyzed on a RayBio® Mouse Cytokine Array (#AAM-TCR-1) according to the manufacture's protocol. The array includes two spots for each cytokine. The luminescence signal was normalized to the positive control on each membrane, then to the vehicle treatment signal of each cytokine."}, "4T1 cells": {"tested_on": "4T1 cells", "assay": "4T1 cells injected into tail vein of BALB/c mice, lung metastasis and T-cell profiling", "format": "in vivo", "experimental": "There was no difference in the primary tumor size between treatment groups nor the size of recurrent tumors at 6 weeks (FIG. 9, Panel B and FIG. 8, Panel C). […] To investigate tissue specific effects, gene expression changes between treatment groups in lung and tumor tissues were analyzed by RNA-sequencing. […] To reduce the impact of TEAD inhibition on cancer cell intrinsic function such as dissemination and invasion, 4T1, a triple negative mouse mammary carcinoma cell line (Pulaski & Ostrand-Rosenberg, 2000), was injected into the tail vein of BALB/c mice that directly seed into the lung tissue. A reduction in lung metastases, as well as the suppression of inflammatory pathways, were observed (FIG. 9, Panels E and F, and FIG. 8, Panel F).\nTo determine early changes in the T-cell population, lung and spleen tissues of BALB/c mice that were intravenously injected with 4T1 were processed and analyzed by flow cytometry 10 days post inoculation (FIG. 9, Panel E). […] M1-like macrophages and IL12 signaling play a critical role in the crosstalk between macrophages and T-cells triggering their proliferation and differentiation of T-cell subsets that can eliminate tumor cells unlike the pro-tumor M2-like macrophages (Guerriero, 2019; Oishi et al., 2016; Shao et al., 2023). Thus, the interplay between macrophage and T-cells after iTEAD treatment is likely to play a role in the increase in CD8+ T-cell and Th1 CD4+ cell populations in the lungs.\nFormalin-fixed, paraffin embedded (FFPE) lung tissue sections were stained with hematoxylin and eosin. Immunohistochemistry staining was performed on FFPE tumor and lung tissue sections. Slides were deparaffinized in xylene and rehydrated following a series of ethanol washes. Heat-induced antigen retrieval was then performed by placing slides in warmed sodium citrate buffer (pH 6.0) (Invitrogen, 005000) in a pre-heated steamer for 20 minutes. Slides were cooled at room temperature for an additional 20 minutes, prior to quenching endogenous peroxidase activity using 3% hydrogen peroxide buffer (Fisher, BP2633500) for 10 minutes. Next, slides were incubated overnight at 4° C. with either anti-CD8 (Cell Signaling Technology, #98941), anti-CD68 (Abcam, ab303565), anti-CD206 (Cell Signaling Technology, #24595), or anti-F480 (Cell Signaling Technology, #70076). Following PBS washes, the slides are then stained with a biotinylated secondary antibody using the VECTASTAIN Elite ABC-HRP Kit according to the user's manual (Vector Laboratories, PK-6101). Positive brown staining was produced by applying ImmPACT DAB EqV Substrate Kit (Vector Laboratories, SK-4103) to the slides, which were then counterstained with hematoxylin (Sigma, MHS16). Images were captured using the Olympus BX40 microscope, and positive staining was quantified manually. Immunofluorescent staining was performed on lung tissue sections. Slides were baked at 60°, deparaffinized in xylene, rehydrated, washed in DI water and incubated with 10% neutral buffered formalin (NBF) for an additional 20 minutes to increase tissue-slide retention. Epitope retrieval/microwave treatment (MWT) for all antibodies was performed by boiling slides in Antigen Retrieval buffer 6 (AR6 pH6, Akoya AR6001KT). Protein blocking is performed using antibody diluent/blocking buffer (Akoya, ARD1001EA) for 10 minutes at room temperature. […] Slides were scanned at 10× magnification using the Vectra 3.0 Automated Quantitative Pathology Imaging System (PerkinElmer/Akoya). […]"}},
  "data": [
    {"substance": "VT107", "values": [
      {"measurement": "level of the other cytokines detected", "setting": "[1]; 1 μM VT107 24 hours, lung and bone marrow-derived macrophages", "result": "no change"},
      {"measurement": "secreted IL4", "setting": "[1]; 1 μM VT107 for 24 hours", "result": "significantly higher level"},
      {"measurement": "secreted IL12", "setting": "[1]; 1 μM VT107 for 24 hours", "result": "significantly higher level"},
      {"measurement": "inflammatory pathways in lungs", "setting": "4T1 cells; 30 mg/kg VT107 daily", "result": "suppression"},
      {"measurement": "lung metastases", "setting": "4T1 cells; 30 mg/kg VT107 daily by oral gavage vs vehicle", "result": "reduction"},
      {"measurement": "T-bet staining in the lungs", "setting": "4T1 cells; IHC, week 2", "result": "significant increase"},
      {"measurement": "overall abundance of CD4+ and CD8+ T-cell populations", "setting": "4T1 cells; flow cytometry 10 days post inoculation", "result": "no difference"},
      {"measurement": "helper 1 T-cell (Th1) population", "setting": "4T1 cells; flow cytometry 10 days post inoculation, lung", "result": "increased"}
    ]}
  ]
}
